Measurements as given in patent US5401725A, “Neovascularization inhibition by adenosine-5'-phosphosulfates” (Unitika Ltd., priority 1990, dated 1995).

Experiments:
[1] = tested on: capillary vessel hyperplasia (experimental diabetic retinopathy); assay: therapeutic effect on experimental diabetic retinopathy; assay type: in vivo, rat (wister); details: for improving effect of pathologic state / beneficial effect on the pathologic state: I.P.; for improving effect of pathologic state: ten consecutive days; for beneficial effect on the pathologic state: ten days
Description: First, streptozocin in an amount of 65 mg/kg was administered to a six-week aged male wister rat from its vena caudalis, and about three months thereafter, 3,3'-iminodipropionitrile was administered. Rats in which abnormal growth of capillary vessel (hyperplasia retinitis) was observed were screened out and were subjected to a medicament administration test with ten rats as a group.
For comparison purposes, the effect of the medroxyprogesterone acetate (MPA), the conventional substance for inhibiting the neovascularization, was also tested by the same procedure as described above.

[2] = tested on: neovascularization of chorio-allantoic membranes; assay: neovascularization inhibition on chorio-allantoic membranes of fertilized fowl eggs; assay type: in vivo; details: for neovascularization inhibitory rate: two days; for neovascularization inhibitory effect (in words): commercially available
[3] = tested on: neovascularization in the cornea; assay: inhibition of neovascularization in the cornea of rabbits (slow-releasing pellet); assay type: in vivo, rabbit; details: 100 μg and 1.0 mg in pellet with 10 μg prostaglandin E1 or 200 μg cuprous chloride; seven days
[4] = toxicity in rats, parenteral administration; assay type: in vivo, rat; details: 500 to 3,500 mg/kg in 50% dimethylsulfoxide, I.V. or I.P.

## CC(=O)O[C@]1(C(C)=O)CC[C@H]2[C@@H]3C[C@H](C)C4=CC(=O)CC[C@]4(C)[C@H]3CC[C@@]21C [MPA, medroxyprogesterone acetate, reference compound]
[1]; Table 3, 1.5 mg/kg
  improving effect of pathologic state: -
[1]; Table 3, 3.0 mg/kg
  improving effect of pathologic state: + (improving effects of pathologic state of 10 to 30%)
[1]; Table 3, 4.5 mg/kg
  improving effect of pathologic state: + (improving effects of pathologic state of 10 to 30%)
[1]; Table 3, 6.0 mg/kg
  improving effect of pathologic state: ++ (30 to 70%)

## Nc1ncnc2c1ncn2[C@@H]1O[C@H](COP(=O)(O)OS(=O)(=O)O)[C@@H](OP(=O)(O)O)[C@H]1O [PAPS, 3-phosphoadenosine 5'-phosphosulfate]
[2]; Table 1, commercially available (Sigma), dose 1 μg
  neovascularization inhibitory rate: + (10 to 80% (+))
[2]; Table 1, commercially available (Sigma), dose 10 μg
  neovascularization inhibitory rate: ++ (80 to 70% (++))
[2]; Table 1, commercially available (Sigma), dose 100 μg
  neovascularization inhibitory rate: ++ (80 to 70% (++))
[2]; Table 1, commercially available (Sigma), dose 1,000 μg
  neovascularization inhibitory rate: +++ (70 to 100% (+++))
[2]; Table 2, enzyme-synthesized, dose 1 μg
  neovascularization inhibitory rate: + (10 to 80% (+))
[2]; Table 2, enzyme-synthesized, dose 10 μg
  neovascularization inhibitory rate: ++ (80 to 70% (++))
[2]; Table 2, enzyme-synthesized, dose 100 μg
  neovascularization inhibitory rate: ++ (80 to 70% (++))
[2]; Table 2, enzyme-synthesized, dose 1,000 μg
  neovascularization inhibitory rate: +++ (70 to 100% (+++))
[2]; dose 10 μg
  neovascularization inhibitory effect (in words): slight effect
[2]; dose at least 100 μg
  neovascularization inhibitory effect (in words): perfect neovascularization inhibitory effect
[2]; enzyme-synthesized, dose range 1 to 1,000 μg
  neovascularization inhibition (in words): inhibited neovascularization in a dose-dependent manner
[3]
  inhibition of neovascularization caused by prostaglandin E1 or cuprous chloride: perfectly inhibit the neovascularization
[1]; 1.5 mg/kg administration group
  beneficial effect on the pathologic state: 10%
[1]; 3.0 mg/kg group
  beneficial effect on the pathologic state: 70%
[1]; 6.0 mg/kg group
  beneficial effect on the pathologic state: at least 80%
[1]; Table 3, 1.5 mg/kg
  improving effect of pathologic state: + (improving effects of pathologic state of 10 to 30%)
[1]; Table 3, 3.0 mg/kg
  improving effect of pathologic state: ++ (30 to 70%)
[1]; Table 3, 4.5 mg/kg
  improving effect of pathologic state: +++ (70 to 100%)
[1]; Table 3, 6.0 mg/kg
  improving effect of pathologic state: +++ (70 to 100%)
[1]; any of the doses (1.5-6.0 mg/kg), compared with MPA
  therapeutic effect as compared with MPA (in words): excellent therapeutic effect
[4]
  intoxication or lethality: no cases of intoxication or lethality
